Assay results published in patent publication USRE39591E1, “6-O-substituted ketolides having antibacterial activity” (Abbott Laboratories, priority 1996, dated 2007).
Values after ≈ are worked out from the molar mass of the structure shown.

Test system: up to 32 different microorganisms
Test: in vitro antibacterial activity (MIC), agar dilution on Brain Heart Infusion (BHI) agar with Steers replicator
Type: cell-based
Conditions: unit assumed
In short: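 Agar dilution MIC: twelve successive compound dilutions in BHI agar, spot-inoculated with 1:100 (1:10 for slow growers) organism dilutions by Steers replicator, incubated 35-37° C for 20-24 h. MIC is lowest concentration showing no growth, slight haze or sparse colonies versus drug-free control; erythromycin A as class reference.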

CCC1OC(=O)C(C)C(=O)C(C)C(OC2OC(C)CC(N(C)C)C2O)C(C)(OCC=Cc2ccc3nc(C)ccc3c2)CC(C)C(=O)C(C)C2NC(=O)OC12C (stereo not shown) [Example 197, R is —CH2CH═CH-(2-methyl-6-quinolyl)]
MIC (Candida albicans CCH 442 (code TT)): > 100 µg/mL | MIC (Enterococcus faecism ATCC 8043 (code II)): 0.05 µg/mL (≈ 0.0641 µM) | MIC (Escherichia coli DC-2 (code SS)): 100 µg/mL (≈ 128 µM) | MIC (Escherichia coli JUHL (code QQ)): 100 µg/mL (≈ 128 µM) | MIC (Escherichia coli SS (code RR)): 0.2 µg/mL (≈ 0.256 µM) | MIC (Micrococcus luteus ATCC 4698 (code PP)): 0.2 µg/mL (≈ 0.256 µM) | MIC (Micrococcus luteus ATCC 9341 (code OO)): 0.02 µg/mL (≈ 0.0256 µM) | MIC (Mycobacterium smegmatis ATCC 114 (code UU)): 1.56 µg/mL (≈ 2 µM) | MIC (Nocardia Asteroides ATCC9970 (code VV)): 0.1 µg/mL (≈ 0.128 µM) | MIC (Staphylococcus aureus 1775 (code GG)): > 100 µg/mL | MIC (Staphylococcus aureus A5177 (code BB)): 0.1 µg/mL (≈ 0.128 µM) | MIC (Staphylococcus aureus A-5278 (code CC)): > 100 µg/mL | MIC (Staphylococcus aureus ATCC 6538P (code AA)): 0.1 µg/mL (≈ 0.128 µM) | MIC (Staphylococcus aureus CMX 553 (code FF)): 0.2 µg/mL (≈ 0.256 µM) | MIC (Staphylococcus aureus CMX 642A (code DD)): 0.1 µg/mL (≈ 0.128 µM) | MIC (Staphylococcus aureus NCTC10649M (code EE)): 0.2 µg/mL (≈ 0.256 µM) | MIC (Staphylococcus epidermidis 3519 (code HH)): 0.1 µg/mL (≈ 0.128 µM) | MIC (Streptococcus agalactiae CMX 508 (code KK)): ≤ 0.005 µg/mL | MIC (Streptococcus bovis A-5169 (code JJ)): ≤ 0.005 µg/mL | MIC (Streptococcus pyogenes 930 (code MM)): 100 µg/mL (≈ 128 µM) | MIC (Streptococcus pyogenes EES61 (code LL)): ≤ 0.005 µg/mL | MIC (Streptococcus pyogenes PIU 2548 (code NN)): 0.1 µg/mL (≈ 0.128 µM)

CCC1OC(=O)C(C)C(=O)C(C)C(OC2OC(C)CC(N(C)C)C2O)C(C)(OCC=Cc2ccc3ncc(-c4cccs4)cc3c2)CC(C)C(=O)C(C)C2NC(=O)OC12C (stereo not shown) [Example 275, Compound of Formula (IX): L is CO, T is NH2, R is —CH2CH═CH-(3-(2-thiphenyl)-6-quinolyl)]
MIC (organism code AA): 0.2 µg/mL | MIC (organism code BB): 0.2 µg/mL | MIC (organism code CC): > 100 µg/mL | MIC (organism code DD): 0.2 µg/mL | MIC (organism code EE): 0.2 µg/mL | MIC (organism code FF): 0.2 µg/mL | MIC (organism code GG): > 100 µg/mL | MIC (organism code HH): 0.2 µg/mL | MIC (organism code II): 0.1 µg/mL | MIC (organism code JJ): 0.01 µg/mL | MIC (organism code KK): 0.05 µg/mL | MIC (organism code LL): 0.02 µg/mL | MIC (organism code MM): 12.5 µg/mL | MIC (organism code NN): 0.2 µg/mL | MIC (organism code OO): 0.02 µg/mL | MIC (organism code PP): 0.2 µg/mL | MIC (organism code QQ): > 100 µg/mL | MIC (organism code RR): 0.78 µg/mL | MIC (organism code SS): > 100 µg/mL | MIC (organism code TT): > 100 µg/mL | MIC (organism code UU): 0.39 µg/mL | MIC (organism code VV): 0.2 µg/mL | MIC (organism code WW): 8 µg/mL | MIC (organism code XX): 0.03 µg/mL | MIC (organism code YY): 0.03 µg/mL | MIC (organism code ZZ): 4 µg/mL | MIC (organism code ZZA): 0.5 µg/mL

CCC1OC(=O)C(C)C(=O)C(C)C(OC2OC(C)CC(N(C)C)C2O)C(C)(OCC=Cc2cn(C)c(=O)n(C)c2=O)CC(C)C(=O)C(C)C2NC(=O)OC12C (stereo not shown) [Example 293, Compound of Formula (IX): L is CO, T is NH, R is —CH2—CH═CH-(1,3-dimethyl-2,4-dioxo-5-pyrimidinyl)]
MIC (organism code AA): 0.39 µg/mL | MIC (organism code BB): 0.39 µg/mL | MIC (organism code CC): > 100 µg/mL | MIC (organism code DD): 0.39 µg/mL | MIC (organism code EE): 0.39 µg/mL | MIC (organism code FF): 0.39 µg/mL | MIC (organism code GG): > 100 µg/mL | MIC (organism code HH): 0.39 µg/mL | MIC (organism code II): 0.1 µg/mL | MIC (organism code JJ): 0.02 µg/mL | MIC (organism code KK): 0.05 µg/mL | MIC (organism code LL): 0.02 µg/mL | MIC (organism code MM): > 100 µg/mL | MIC (organism code NN): 0.78 µg/mL | MIC (organism code OO): 0.05 µg/mL | MIC (organism code PP): 0.2 µg/mL | MIC (organism code QQ): > 100 µg/mL | MIC (organism code RR): 0.78 µg/mL | MIC (organism code SS): > 100 µg/mL | MIC (organism code TT): > 100 µg/mL | MIC (organism code UU): 12.5 µg/mL | MIC (organism code VV): 0.78 µg/mL | MIC (organism code WW): 16 µg/mL | MIC (organism code XX): 0.03 µg/mL | MIC (organism code YY): 0.03 µg/mL | MIC (organism code ZZ): > 128 µg/mL | MIC (organism code ZZA): 0.5 µg/mL
